Test results from patent publication US7339039B2, “Nucleic acids encoding receptor recognition factors, and methods of use thereof” (The Rockfeller University, priority 1992, dated 2008).
Square brackets hold non-standard residues; d marks the D form. Ends that are not written are not given here. pY = N[C@@H](Cc1ccc(OP(=O)(O)O)cc1)C(=O)O

How the values were obtained:
[1] = test system: Stat84 and Stat91L homodimers; assay: Dissociation-reassociation analysis (gel mobility shift with GAS probe); type: biochemical, human; conditions: for dissociation of the dimers and block of formation of DNA protein complexes: peptide 160 μM
Experimental: (§1) Gel Mobility Shift Assays. Gel mobility shift assays were carried out as described (34). An oligonucleotide corresponding to the GAS element from the human FcγRI receptor gene (Pearse et al. 1993) was synthesized and used for gel mobility shift assays. The oligonucleotide has the following sequence: 5′[…]3′ (SEQ. ID NO:17).
Dissociation-reassociation Analysis. Extracts were incubated with various concentrations of peptides or fusion proteins, and ^32P-labeled GAS oligonucleotide probe in gel shift buffer was then added to promote the formation of protein-DNA complex followed by mobility shift analysis.
Dimerization of Stat91 Involves Phosphoryrosyl Peptide and SH2 Interactions. Based on the results described above, we devised a dissociation-reassociation assay in the absence of guanidium hydrochloride to explore the possible nature of interactions involved in dimer formation (FIG. 20). When the short and the long forms of a homodimer are mixed with a dissociating agent (e.g., a peptide containing the putative dimerization domain), the subunits of the dimer should dissociate (in a concentration dependent fashion) due to the interaction of the agent with the dimerization domain(s) of the protein. When a specific DNA probe is subsequently added to the mixture to drive the formation of a stable protein-DNA complex, the detection of any reassociated or remaining dimers can be assayed. In the presence of low concentration of the dissociating agent, addition of DNA to form the stable protein-DNA complex should lead to the detection of homodimers as well as heterodimers. At high concentration of the dissociating agent, subunits of the dimer may not be able to re-form and no DNA-protein complexes would be detected (FIG. 20).

[2] = test system: ISGF-3 formation / IFN-α induced transcription; conditions: cited from earlier work
Stat91-DNA complex = target: T1, Stat91-DNA complex (Homo sapiens, UniProt P42224); assay: Formation of Stat91-DNA complex in the presence of phosphoamino acids; type: biochemical; conditions: 10 mM
T1 sequence (P42224 1-750): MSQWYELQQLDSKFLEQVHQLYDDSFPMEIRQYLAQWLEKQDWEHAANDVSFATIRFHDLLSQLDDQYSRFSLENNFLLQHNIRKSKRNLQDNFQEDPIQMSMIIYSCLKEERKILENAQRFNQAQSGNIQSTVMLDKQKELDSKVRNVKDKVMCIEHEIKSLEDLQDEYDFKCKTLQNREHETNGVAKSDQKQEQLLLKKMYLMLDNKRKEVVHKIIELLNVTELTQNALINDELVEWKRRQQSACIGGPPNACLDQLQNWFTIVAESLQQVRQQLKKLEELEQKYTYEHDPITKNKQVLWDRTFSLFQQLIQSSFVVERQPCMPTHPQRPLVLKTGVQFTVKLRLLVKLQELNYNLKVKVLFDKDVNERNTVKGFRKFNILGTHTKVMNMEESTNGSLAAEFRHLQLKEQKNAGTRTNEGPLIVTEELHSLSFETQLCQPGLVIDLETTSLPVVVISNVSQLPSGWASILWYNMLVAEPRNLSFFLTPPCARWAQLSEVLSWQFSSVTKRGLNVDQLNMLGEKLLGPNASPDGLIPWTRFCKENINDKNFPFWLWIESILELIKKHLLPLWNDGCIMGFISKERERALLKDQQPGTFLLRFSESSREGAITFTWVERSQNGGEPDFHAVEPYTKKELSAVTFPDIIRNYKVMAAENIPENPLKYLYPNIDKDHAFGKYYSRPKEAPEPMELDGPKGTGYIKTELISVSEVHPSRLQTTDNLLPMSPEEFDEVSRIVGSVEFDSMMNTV
Experimental: as §1
The Stat91 sequence contains an SH2 domain (amino acids 569 to 700, see discussion below), and we knew that Tyr-701 was the single phosphorylated tyrosine residue required for DNA binding activity (supra, 45). […] We therefore sought evidence that the dimerization of Stat91 involved specific SH2-phosphotyrosine interaction using the dissociation and reassociation assay.

Molecule: EPQY*EEIPIYL (EPQ[pY]EEIPIYL) [SrcY-p, reference compound]
- effect on Stat91 dimer formation ([1]; FIG. 21 lanes 11-13 (4, 40, 160 μM)): no effect

Molecule: CN[C@@H]1C[C@H]2O[C@@](C)([C@@H]1OC)n1c3ccccc3c3c4c(c5c6ccccc6n2c5c31)C(=O)NC4 [staurosporine]
- IFN-α induction of ISGF-3 formation [2]: blocks
- IFN-α induction of transcription [2]: blocks

Molecule: N[C@@H](COP(=O)(O)O)C(=O)O [phosphoserine]
- prevention of formation of Stat91-DNA complex (Stat91-DNA complex): not

Molecule: N[C@@H](Cc1ccc(OP(=O)(O)O)cc1)C(=O)O [phosphotyrosine]
- prevention of formation of Stat91-DNA complex (Stat91-DNA complex): could prevent the formation

Molecule: C[C@@H](OP(=O)(O)O)[C@H](N)C(=O)O [phosphothreonine]
- prevention of formation of Stat91-DNA complex (Stat91-DNA complex): not

Molecule: KVNLQERRKY*LKHR (KVNLQERRK[pY]LKHR) [113Y-p]
- exchange of subunits between Stat84 and Stat91L ([1]; at concentrations similar to 91Y-p): promoted the exchange of subunits
- prevention of the gel shift bands ([1]; peptide 40 μM): prevented the gel shift bands almost completely

Molecule: LDGPKGTGYIKTELI [91Y]
- dissociation of the dimers and block of formation of DNA protein complexes [1]: not
- effect on the two gel shift bands characteristic of Stat84 or Stat91L homodimers ([1]; various concentrations of peptide (4, 40, 160 μM)): no effect

Molecule: GY*IKTE (G[pY]IKTE) [91Y-p]
- exchange between the subunits of Stat84 dimers and Stat91L dimers to form heterodimers ([1]; peptide 4 μM, extracts of IFN-γ-treated C84 and C91L cells): clearly promoted the exchange
- dissociation of the dimers and block of formation of DNA protein complexes [1]: dissociated the dimers and blocked the formation of DNA protein complexes
